Measurements reported in article PMC3222680 (PLoS ONE, 2011).

Assays:
Assay type in all cases: cell-based
[1] = target: T1, αWT αB-βV25′A GlyR (Homo sapiens, UniProt P23415+P48167, A165S/A240V/A277S/A80Q/E245R/G282P/H243T/I181K/I238V/I253M/I257A/I264V/I268L/K171T/L252M/M168L/M248V/M255V/M274P/N172L/P278A/Q254G/R241I/S259T/T179R/V177T/V323A/Y250F)
T1 construct: expressed in transfected cells; host or cells: HEK293 (ATCC)
Description: (§1) The human GlyR α1 and β subunit cDNAs were subcloned into the pcDNA3.1zeo+ (Invitrogen) or pGEMHE [44] plasmid vectors for expression in HEK293 cells or Xenopus oocytes, respectively. Site-directed mutagenesis and chimera construction were performed using the QuickChange (Stratagene, La Jolla, CA, USA) mutagenesis and multiple-template-based sequential PCR protocols, respectively.
(§2) The effects of the hyperekplexia-mimicking mutations, K24′A, V25′A and Y27′A, were examined on GlyRs expressed in HEK293 cells (ATCC). Details of the HEK293 cell culture, GlyR expression and electrophysiological recording of the HEK293 cells are described elsewhere. Briefly, HEK293 cells were maintained in DMEM supplemented with 10% fetal bovine serum. Cells were transfected using a calcium phosphate precipitation protocol. When co-transfecting the α1 together with the β or any other chimera subunits, their respective cDNAs were combined in a ratio of 1∶10. In addition, the pEGFP-N1 (Clontech) was co-transfected to facilitate identifying the transfected cells. […] Cells were treated with external Ringer's solution and internal CsCl solution [30]. Cells were voltage-clamped at −40 mV. When the heteromeric GlyRs were expressed, the picrotoxin sensitivity was tested to confirm that the majority of receptors are heteromers, [30].
(§3) Results are expressed as mean±standard error of the mean of three or more independent experiments. […] Statistical significance was determined using the Student's t-test.

[2] = target: T2, αV25′A βWT GlyR (Homo sapiens, UniProt P23415+P48167, V305A)
T2 construct: expressed in transfected cells; host or cells: HEK293 (ATCC)
Description: as §1, §2, §3

[3] = target: T3, αWT βK24′A GlyR (Homo sapiens, UniProt P23415+P48167, K322A)
T3 construct: expressed in transfected cells; host or cells: HEK293 (ATCC)
Description: as §1, §2, §3

[4] = target: T4, αV25′A αB-βWT GlyR (Homo sapiens, UniProt P23415+P48167, A80Q/V305A)
T4 construct: expressed in transfected cells; host or cells: HEK293 (ATCC)
Description: as §1, §2, §3

[5] = target: T5, αWT α-βK24′A GlyR (Homo sapiens, UniProt P23415+P48167, A277S/G282P/I253M/I257A/I264V/I268L/K322A/L252M/M248V/M255V/M274P/P278A/Q254G/S259T/Y250F)
T5 construct: The α R218-Q219 and β R242-Q243 are also the joining sites for chimeras constructed between the ECD and TMD; expressed in transfected cells; host or cells: HEK293 (ATCC)
Description: as §1, §2, §3

[6] = target: T6, αWT β-αV25′A GlyR (Homo sapiens, UniProt P23415+P48167, A275I/A296P/F268Y/G272Q/L286I/M270L/M271I/P292M/P300G/S295A/T277S/V266M/V273M/V282I/V305A)
T6 construct: The α R218-Q219 and β R242-Q243 are also the joining sites for chimeras constructed between the ECD and TMD; expressed in transfected cells; host or cells: HEK293 (ATCC)
T6 sequence (P23415 29-449 isoform P23415-2): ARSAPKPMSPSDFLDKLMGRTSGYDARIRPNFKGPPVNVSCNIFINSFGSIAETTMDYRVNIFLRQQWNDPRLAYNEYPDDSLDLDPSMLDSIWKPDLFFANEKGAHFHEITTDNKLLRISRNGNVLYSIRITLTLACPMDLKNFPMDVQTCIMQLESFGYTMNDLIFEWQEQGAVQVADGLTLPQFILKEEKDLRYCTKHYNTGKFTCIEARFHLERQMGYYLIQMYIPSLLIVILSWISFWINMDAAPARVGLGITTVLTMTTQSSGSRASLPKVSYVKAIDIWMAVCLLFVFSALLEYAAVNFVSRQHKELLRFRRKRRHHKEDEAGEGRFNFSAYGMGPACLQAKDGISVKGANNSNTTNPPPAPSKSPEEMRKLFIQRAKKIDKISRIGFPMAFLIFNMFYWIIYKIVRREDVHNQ
T6 sequence (P48167+P23415 with tags, fused parts or gaps P48167:V266M/P48167:F268Y/P48167:M270L/P48167:M271I/P48167:G272Q/P48167:V273M/P48167:A275I/P48167:T277S/P48167:V282I/P48167:L286I/P48167:P292M/P48167:S295A/P48167:A296P/P48167:P300G/P23415:V305A): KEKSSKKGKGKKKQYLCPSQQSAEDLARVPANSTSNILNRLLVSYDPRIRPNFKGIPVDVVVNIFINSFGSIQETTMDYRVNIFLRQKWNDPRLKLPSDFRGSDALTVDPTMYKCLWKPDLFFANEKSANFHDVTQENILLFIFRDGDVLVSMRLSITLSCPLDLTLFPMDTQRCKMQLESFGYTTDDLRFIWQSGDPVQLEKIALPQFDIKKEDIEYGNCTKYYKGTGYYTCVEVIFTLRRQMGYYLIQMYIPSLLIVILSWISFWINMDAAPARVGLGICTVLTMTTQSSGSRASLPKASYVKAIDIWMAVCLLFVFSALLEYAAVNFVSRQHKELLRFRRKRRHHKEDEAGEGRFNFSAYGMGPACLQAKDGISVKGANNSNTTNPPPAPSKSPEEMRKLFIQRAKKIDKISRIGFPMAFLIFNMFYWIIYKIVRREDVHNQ
Description: as §1
For the β-α chimeras used for determining the effect of hyperekplexia-mimicking mutations on α1 β GlyR channel function, the Thr at the M2 6′ position was replaced by a Cys. […] Through such a modification, picrotoxin resistance was used to distinguish the heteromeric α1 β-α GlyR from the homomeric α1 GlyR when the α1 and β-α subunits were co-expressed.
as §2, §3

[7] = αWT αB-βV25′A, HEK293, with glycine at EC50 of α1 homomer
[8] = αV25′A βWT, HEK293, with glycine at EC50 of α1 homomer
[9] = αWT βK24′A, HEK293, with glycine at EC50 of α1 homomer
[10] = αV25′A αB-βWT, HEK293, with glycine at EC50 of α1 homomer
[11] = αWT α-βK24′A, HEK293, with glycine at EC50 of α1 homomer
[12] = αWT β-αV25′A, HEK293, with glycine at EC50 of α1 homomer

T5 sequence (P23415+P48167 fused with the stated changes, one chain of several): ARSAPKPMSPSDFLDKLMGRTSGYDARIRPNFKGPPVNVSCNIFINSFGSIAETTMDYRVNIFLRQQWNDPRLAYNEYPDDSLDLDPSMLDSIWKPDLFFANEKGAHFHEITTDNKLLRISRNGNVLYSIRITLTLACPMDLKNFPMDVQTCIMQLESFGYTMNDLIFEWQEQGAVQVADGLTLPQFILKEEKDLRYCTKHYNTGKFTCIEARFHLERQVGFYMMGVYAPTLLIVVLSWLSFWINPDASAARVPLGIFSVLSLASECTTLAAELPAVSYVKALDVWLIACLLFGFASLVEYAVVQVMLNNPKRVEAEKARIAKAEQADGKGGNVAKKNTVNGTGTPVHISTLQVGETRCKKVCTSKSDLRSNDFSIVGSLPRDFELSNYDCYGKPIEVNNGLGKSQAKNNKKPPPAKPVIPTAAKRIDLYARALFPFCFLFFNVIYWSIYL
T1 sequence (P23415+P48167 fused with the stated changes, one chain of several): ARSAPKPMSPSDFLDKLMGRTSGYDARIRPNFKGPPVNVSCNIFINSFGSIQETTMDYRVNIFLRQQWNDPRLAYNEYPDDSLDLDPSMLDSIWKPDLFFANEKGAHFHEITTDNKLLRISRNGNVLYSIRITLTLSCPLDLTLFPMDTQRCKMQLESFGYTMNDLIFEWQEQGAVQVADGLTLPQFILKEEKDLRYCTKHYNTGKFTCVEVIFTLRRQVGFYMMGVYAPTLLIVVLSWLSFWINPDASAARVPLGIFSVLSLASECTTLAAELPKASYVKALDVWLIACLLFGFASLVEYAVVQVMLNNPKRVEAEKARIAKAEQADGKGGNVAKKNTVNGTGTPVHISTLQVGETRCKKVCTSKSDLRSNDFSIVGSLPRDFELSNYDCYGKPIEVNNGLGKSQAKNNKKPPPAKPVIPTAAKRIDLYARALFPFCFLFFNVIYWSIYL
T3 sequence (P48167 23-497 K322A, one chain of several): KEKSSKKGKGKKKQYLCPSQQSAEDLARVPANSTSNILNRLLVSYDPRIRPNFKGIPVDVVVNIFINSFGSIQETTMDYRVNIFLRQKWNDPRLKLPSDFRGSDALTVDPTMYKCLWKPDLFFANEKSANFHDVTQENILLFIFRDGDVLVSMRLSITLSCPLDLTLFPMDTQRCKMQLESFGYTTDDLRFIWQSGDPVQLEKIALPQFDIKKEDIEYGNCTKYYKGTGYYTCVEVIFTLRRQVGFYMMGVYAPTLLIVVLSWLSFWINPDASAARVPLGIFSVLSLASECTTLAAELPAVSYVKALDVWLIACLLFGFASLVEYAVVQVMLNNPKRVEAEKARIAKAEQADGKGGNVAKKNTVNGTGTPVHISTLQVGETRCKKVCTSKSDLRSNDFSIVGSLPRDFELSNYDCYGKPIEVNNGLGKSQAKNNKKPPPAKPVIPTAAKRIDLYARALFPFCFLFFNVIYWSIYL
T4 sequence (P23415 29-449 isoform P23415-2 V305A): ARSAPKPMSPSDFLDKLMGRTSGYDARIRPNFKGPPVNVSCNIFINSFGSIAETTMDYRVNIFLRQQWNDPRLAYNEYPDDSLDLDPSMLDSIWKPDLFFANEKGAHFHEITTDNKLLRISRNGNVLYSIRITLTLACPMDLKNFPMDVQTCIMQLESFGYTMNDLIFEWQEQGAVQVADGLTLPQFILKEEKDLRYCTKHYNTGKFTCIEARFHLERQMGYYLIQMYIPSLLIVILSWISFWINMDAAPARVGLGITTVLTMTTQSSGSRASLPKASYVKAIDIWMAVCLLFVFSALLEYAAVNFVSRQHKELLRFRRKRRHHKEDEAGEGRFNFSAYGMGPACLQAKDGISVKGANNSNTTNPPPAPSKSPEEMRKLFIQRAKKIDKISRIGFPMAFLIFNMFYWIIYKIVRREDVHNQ
T4 sequence (P23415+P48167 fused with the stated changes): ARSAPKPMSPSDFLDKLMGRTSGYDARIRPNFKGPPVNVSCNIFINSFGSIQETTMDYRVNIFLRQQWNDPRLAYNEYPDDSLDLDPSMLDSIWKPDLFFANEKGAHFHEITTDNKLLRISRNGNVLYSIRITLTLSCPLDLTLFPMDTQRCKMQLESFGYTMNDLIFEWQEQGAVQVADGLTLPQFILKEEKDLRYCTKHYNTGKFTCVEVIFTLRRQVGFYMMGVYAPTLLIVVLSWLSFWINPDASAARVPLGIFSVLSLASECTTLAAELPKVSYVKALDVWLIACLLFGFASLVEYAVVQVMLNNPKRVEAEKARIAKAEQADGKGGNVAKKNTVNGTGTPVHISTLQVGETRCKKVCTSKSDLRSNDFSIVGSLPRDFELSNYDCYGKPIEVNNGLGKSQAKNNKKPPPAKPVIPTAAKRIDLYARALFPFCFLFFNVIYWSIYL
T2 sequence (P23415 29-449 isoform P23415-2 V305A limits assumed): as the sequence (P23415 29-449 isoform P23415-2 V305A) above
T2 sequence (P48167 23-497): as the sequence (P48167 23-497 K322A, one chain of several) above, with A300K counted along it

Question: With `NCC(=O)O` [glycine] as the molecule, how does the Imax [1] read?
Answer: 9.8±4.9 nA

Question: What about the nH [1] of the same molecule?
Answer: 2.2±0.3

Question: What about the Imax [2] of the same molecule?
Answer: 7.4±2.8 nA

Question: What about the nH [2] of the same molecule?
Answer: 1.4±0.2

Question: And the Imax [3]?
Answer: 5.4±1.0 nA

Question: What about the nH [3] of the same molecule?
Answer: 1.5±0.3

Question: What about the Imax [4] of the same molecule?
Answer: 5.5±0.9 nA

Question: What about the nH [4] of the same molecule?
Answer: 1.1±0.0

Question: What about the Imax [5] of the same molecule?
Answer: 8.0±1.8 nA

Question: What about the nH [5] of the same molecule?
Answer: 1.5±0.2

Question: What about the Imax [6] of the same molecule?
Answer: 11.0±1.1 nA

Question: What about the nH [6] of the same molecule?
Answer: 2.2±0.3

Question: How did the “10uM PTX inhibition (%)” value [1, 7] turn out when picrotoxin [PTX] was run?
Answer: 8.9±2.4%

Question: What about the “100uM PTX inhibition (%)” value [1, 7] of the same molecule?
Answer: 43±3%

Question: What about the “10uM PTX inhibition (%)” value [2, 8] of the same molecule?
Answer: 4.7±0.7%

Question: What about the “100uM PTX inhibition (%)” value [2, 8] of the same molecule?
Answer: 38±3%

Question: What about the “10uM PTX inhibition (%)” value [3, 9] of the same molecule?
Answer: 6.0±1.2%

Question: And the “100uM PTX inhibition (%)” value [3, 9]?
Answer: 35±3%

Question: And the “10uM PTX inhibition (%)” value [4, 10]?
Answer: 4.8±0.6%

Question: And the “100uM PTX inhibition (%)” value [4, 10]?
Answer: 27±2%

Question: And the “10uM PTX inhibition (%)” value [5, 11]?
Answer: 5.6±1.0%

Question: And the “100uM PTX inhibition (%)” value [5, 11]?
Answer: 35±4%

Question: What about the “10uM PTX inhibition (%)” value [6, 12] of the same molecule?
Answer: 8.8±1.6%

Question: What about the “100uM PTX inhibition (%)” value [6, 12] of the same molecule?
Answer: 31±1%
